Data taken from US20040084383A1, “Method to inhibit growth of microorganisms in aqueous systems and on substrates using a persulfate and a bromide” (BUCKMAN LABORATORIES INTERNATIONAL, INC., priority 2002, published 2004).

Tested on: Pseudomonas aeruginosa
Assay: Antimicrobial efficacy in inoculated pulp slurry (24 hr incubation, plated in nutrient agar, cfu/ml counted)
Assay type: cell-based
Procedure: A concentrated solution of active biocidal composition was prepared by mixing 44% (w/v) of aqueous ammonium persulfate with 40% (w/v) aqueous sodium bromide in equal volume. The final mixture contains 22% ammonium persulfate and 20% NaBr at pH 2.2. The molar ratio of the components was 1:2 for (NH4)2S2O8:NaBr. Four hours after mixing, the concentrated solution was diluted with water to contain 5% ammonium persulfate. This diluted solution (5%) was then added to 50 ml pulp slurry to give a biocidal concentration of 10 ppm (as ammonium persulfate) in pulp slurry. The pulp slurry was then inoculated with 3×10^6 cells/ml of Pseudomonas aeruginosa, incubated at room temperature for 24 hr, plated in nutrient agar. The colony forming units per milliliter (cfu/ml) was counted and compared with each individual component acting alone.
The pulp slurry contains white bleached dry pulp at 5 g/L; cationic starch at 10 bl/ton dry pulp; CaCO3 at 300 bl/ton dry pulp; ASA size at 3-4 lb/ton dry pulp; retention aids at 0.5-1.0 bl/ton dry pulp; defoamer at 250 g/ton dry pulp. The pulp slurry has a consistency of about 0.5 to 0.7%. The final pH of the pulp substrate after autoclave is about 8.0. […] Neither component acting alone provides significant antimicrobial efficacy.
The antimicrobial efficacy of the mixture containing 22% (w/v) aqueous ammonium persulfate and 20% (w/v) aqueous NaBr was tested at different times after mixing, aging times. The mixture preparation, at pH 2.2, and the test system are the same as that described in Example 1. At each time, a portion of the mixture was taken and diluted to 5% (as ammonium persulfate). The diluted solution was then added to pulp slurry to give a final concentration of 5, 10, 20, and 40 ppm (as ammonium persulfate) in pulp slurry. […] At only 5 ppm level, it achieved 2.5 logs reduction, which represents greater than 99% kill. […] It requires about 4 hr to provide significant activity. At about 8 hr after mixing, the mixed solution reached the maximum activity. The biocidal efficacy of the mixture was maintained or stabilized for at least 7 days.
Three mixtures were generated. Mixture #1 was prepared by mixing 22% (NH4)2S2O8 with 20% NaBr in equal volume. The final concentrations in mixture #1 were 11% (NH4)2S2O8 and 10% NaBr. Mixture #2 was made by mixing 33% (NH4)2S2O8 with 30% NaBr in equal volume. The final concentrations in Mixture #2 were 16.5% (NH4)2S2O8 and 15% NaBr. Mixture #3 was prepared by mixing 44% (NH4)2S2O8 with 40% NaBr in equal volume. In the final solution, Mixture #3 contains 22% (NH4)2S2O8 and 20% NaBr. All three mixtures, having a pH 2.2, were tested at a dosage of 20 ppm, and at 1, 2, 4, and 8 hr after mixing for their antimicrobial activity in the pulp slurry described in Example 1. […]

[1] = 1000 ppm as pure compound in pulp slurry
[2] = 100 ppm as pure compound in pulp slurry

Row | SMILES | CFU/ml [1] | Log Reduction [1] | CFU/ml [2] | Log Reduction [2]
1 | [Br-].[Na+] [NaBr, sodium bromide] | 4.2 × 10^6 CFU/ml | 0.00 |  | 
2 | N.N.O=S(=O)(O)OOS(=O)(=O)O [(NH4)2S2O8, ammonium persulfate] |  |  | 4.5 × 10^5 CFU/ml | 0.97
